Columns and labels:
[1] = test system: pY284-ACK1; experiment: immunoprecipitation and immunoblotting for pY284-ACK1; type: cell-based; conditions: MDA-MB-231, HCC-1395, Cal148, T47D, MCF7, SKBR3, MDA-MB-453; overnight
Method: Fig. 2 ACK1 regulates breast cancer transcriptome, affecting genes implicated in cell cycle progression. A Chemical structure of (R)-9b. B Breast cancer cell lines were treated with either vehicle or (R)-9b overnight and cell lysates were subjected to immunoprecipitation using ACK1 antibody, followed by immunoblotting with pY284-ACK1 antibody. Lysates were also subjected to immunoblotting with total ACK1 and Actin antibodies, shown in the lower panels. […] C Breast cancer cell lines were treated with varying concentrations of (R)-9b for 96 h and the cell proliferation was measured using Trypan Blue exclusion method. D–H RNA from breast cancer cells treated with vehicle or varying concentrations of (R)-9b overnight, and were subjected to qRT-PCR using CCNB1, CCNB2 and CDC20 primers. Actin or 18S rRNA was used as housekeeping control. For (B), representative images of three independent experiments are shown. For (C), a four parameter, variable slope, non-linear regression curve was computed, representing three independent experiments. For (D–H), data are represented as the mean ± SEM. *p < 0.05, **p < 0.01, ***p < 0.001, unpaired two-tailed Student’s t test.
Vehicle or (R)-9b (5 µM, overnight in serum free media) treated cells were lysed by sonication in receptor lysis buffer (RLB) and lysates were fractionated by SDS-PAGE, and transferred onto a PVDF membrane (Immobilon). […]

[2] = test system: MCF7 xenografts; experiment: MCF7 xenograft in mammary fat pad; type: in vivo, female SCID mice; conditions: orally 36 mg/Kg or subcutaneously 24 mg/Kg
Method: Fig. 6 (R)-9b inhibits breast cancer xenograft tumor growth in vivo. A 2 × 10^6 Cal-148 cells were injected in the 4th inguinal mammary fat pad of female SCID mice. Once the tumors were palpable, the mice were treated subcutaneously with either vehicle (Captisol; n = 8) or (R)-9b at 24 mg/Kg (n = 8) five times a week, for 4 weeks. The tumor volumes were measured twice a week. B, C The tumors were harvested and photographed, and the weights were recorded. D RNA was prepared from the tumors, followed by qRT-PCR to determine the levels of CCNB1, CCNB2 and CDC20 mRNA (n = 3 each). E and F 2 × 10^6 MCF7 cells were injected in the 4th inguinal mammary fat pad of female SCID mice with continuous supplementation of estrogen. Once the tumors were palpable, the mice were treated with vehicle (Captisol; n = 7), (R)-9b at 24 mg/Kg subcutaneously (n = 8), or orally with (R)-9b at 36 mg/Kg (n = 8), five times a week, for 4 weeks. The tumors were harvested, their weights were recorded and photographed. G Tumor lysates were subjected to immunoblotting using pACK1, CCNB1, CCNB2, CDC20 and Actin antibodies (n = 3 each). H RNA was prepared from the tumors, followed by qRT-PCR to determine the levels of CCNB1, CCNB2 and CDC20 mRNA (n = 3 each). Data are represented as the mean ± SEM. *p < 0.05; **p < 0.01; ***p < 0.001. For (C) and (D), unpaired two-tailed Student’s t test, and for (E) and (H), one way ANOVA was performed.
In addition, effect of (R)-9b was assessed in ER^+/PR^+ breast cancer xenografts. Briefly, MCF7 cells were implanted in mammary fat pad of female SCID mice. Once the tumors were palpable, the mice were treated orally (36 mg/Kg) or injected subcutaneously with 24 mg/Kg of (R)-9b for 4 weeks. […] Further, RNA was isolated from the xenograft tumors and CDC20, CCNB1 and CCNB2 mRNA levels were examined.
All animal experiments were performed using the standards for humane care in accordance with the NIH Guide for the Care and Use of Laboratory Animals. […] Tumor volumes were measured twice a week using calipers. […]

[3] = test system: phospho-serine 139-γH2AX; experiment: γH2AX immunocytochemistry; type: cell-based; conditions: breast cancer cell lines, 48h
Method: Breast cancer cells were grown over coverslips and treated with vehicle or (R)-9b. The cells were fixed in 2% paraformaldehyde and permeabilized. The cells were stained with phospho-serine 139-γH2AX antibody (Red), phalloidin (green) and DAPI. Fluorescent microscopic images were captured. […]
breaks in breast cancer cell lines
Breast cancer cell lines were treated with either vehicle or (R)-9b for 48h and stained with phospho-serine 139-γH2AX antibody (Red), phalloidin (green) and DAPI. Representative images of fluorescent microscopic analysis are shown.

CN1CCN(c2ccc(Nc3ncc(Cl)c(NC[C@H]4CCCO4)n3)cc2)CC1 [(R)-9b]
pY284-ACK1 levels (ACK1 activation) [1]: reduced pY284-ACK1 levels
CDC20, CCNB1 and CCNB2 mRNA levels in tumors [2]: significant reduction
CDC20, CCNB1 and CCNB2 protein levels in tumor lysates [2]: marked decrease
xenograft tumor growth ([2]; 4 weeks): significant loss of tumor growth
γH2AX staining (DNA damage, double strand breaks) [3]: poor γH2AX staining

Reference: paper PMC10348910, “Epigenetic reprogramming of cell cycle genes by ACK1 promotes breast cancer resistance to CDK4/6 inhibitor” (Oncogene, 2023)
